This assay deals with human papillomavirus (HPV) genital warts. Briefly: 15 months treatment of 90 infected patients, number of recurrent warts (Example 1). The format is in vivo. The text has this: The composition, to be applied topically or transdermally to the skin and mucous membranes, is of high interest because it triggers little or no side-effects, very little irritation, no restrictive length of application, no impact on non-infected skin, can heal surface and/or deep flesh warts and prevent the recurrence of outbreaks. The treatment consists in topically administering the composition to the HPV infected skin and mucous membranes of patients. Such physiological regions consists of, in particular, the skin of the penis, vulva (area outside the vagina), anus, scrotum, groin, or thigh and in the linings of the vagina, cervix, or rectum presenting the virus related warts. […] Two types of warts can be found in patients: acute or chronic warts. The first kind, the acute wart, can be treated by simply swiping the surface of the skin or mucous membrane with a swab, previously impregnated with the composition, and gently rubbing the skin in order to allow penetration of the composition in its deepest layers. The second kind is the chronic wart, which requires a more invasive type of treatment. Indeed, the treatment is either effected by applying to the skin or mucous surface to treat a transdermal patch, constantly and regularly diffusing the composition through the area it covers, or by using a microlet, which uses a needle rapidly piercing the skin and injecting the composition deeply in the flesh.
Posology: Application of the topical composition is effected 1 time per week through swiping of the region with a swab containing the composition in the case of an acute wart or through the use of a transdermal patch or microlet in the case of a chronic wart.
Results: Table 1 comprises the results of a 15 months treatment with the composition of the present invention on a total of 90 infected patients. Table 2 comprises the results of a 15 months treatment with liquid nitrogen on a total of 90 infected patients. The compiled data consists of the number of recurrent warts that had still developed after a 15 months treatment with either the cream of the present invention or with liquid nitrogen. These records represent direct evidence that the composition of the present invention is effective, the number of warts that had still reappeared after a 15 months long treatment of the intermittent lesion and inflammation being less important with the cream than with the liquid nitrogen. Indeed, 67% of patients treated with the composition of the present invention presented a low degree of infections after the 15 months treatment (1 to 2 recurrent warts) whereas only 13% of the patients treated with the liquid nitrogen presented similar results.

Each structure is given as a SMILES string.

In the case of `N#N` [liquid nitrogen], where the note is “90 patients per treatment”, the “patients presenting a low degree of infections after the 15 months treatment (1 to 2 recurrent warts)” value was found to be 13%. In addition, the “Number of patients with 1 to 2 recurrent warts after a 15 months treatment” value (90 patients, 1 to 2 warts) is reported as 12. Further, under “90 patients, 3 to 5 warts”, the “Number of patients with 3 to 5 recurrent warts after a 15 months treatment” value is listed as 49. For the same compound, the “Number of patients with 6 to 10 recurrent warts after a 15 months treatment” value (90 patients, 6 to 10 warts) amounted to 29.
